Measurements taken from patent US20100203647A1, “Chemical Reporters of Protein Acylation” (THE ROCKEFELLER UNIVERSITY, priority 2008, published 2010).

How the values were obtained:
Type in all cases: biochemical
p300 [1] = molecular target: T1, p300 (Homo sapiens, UniProt Q09472); experiment: MALDI-TOF analysis of p300-catalyzed acylation of histone H3 peptide in vitro; settings: 20 μM analog, MS analysis
T1 construct: made in house; host or cells: SF9 insect cells, baculovirus
Description: Cells were lysed in lysis buffer (20 mM Tris, pH 7.5, 500 mM NaCl, 4 mM MgCl2, 0.4 mM EDTA, 20% glycerol, 2 mM DTT, and supplemented with protease inhibitors). Clarified cell lysates were diluted to 300 mM NaCl, and NP-40 was added to 0.1% final concentration. Flag M2 agarose resin (Sigma) was added to the lysate and incubated for 4 hours at 4° C. […] Protein concentration and purity were estimated by comparison to BSA standards on SDS gels stained with Gelcode Blue stain (Pierce).

p300 [2] = molecular target: T1, p300; experiment: In vitro acylation of histone H3 protein by p300 and mapping of modification sites (spectral counts, nano-HPLC/MS/MS)
Description: Following the in vitro reaction, proteins were separated on 15% SDS-PAGE and stained with coomassie brilliant blue R-250 staining solution (Bio-Rad). The gel slices containing histone H3 products were excised from each lane, washed with 50 mM ammonium bicarbonate (ABC) twice, destained with 50 mM ABC/CH3CN (50/50) twice and dehydrated with CH3CN. After drying the gel slices in a SpeedVac, gel slices were rehydrated with trypsin solution (2 μg of trypsin for each vial/gel slice) and incubated in 37° C. water bath for 18 hrs. Trypsin-digested peptides in solution were collected, dried in SpeedVac, resuspended in H2O (with 0.1% TFA) and submitted samples to nano-HPLC/MS/MS analysis (Thermo LTQ-Orbitrap in the Proteomic Resource Center at Rockefeller University).
LC-MS analysis was performed with a Dionex 3000 nano-HPLC coupled to an LTQ-Orbitrap ion trap mass spectrometer (ThermoFisher). Peptides were pressure loaded onto a home made 75 μm diameter, 15 cm C18 reverse phase column and separated with a gradient running from 95% buffer A (HPLC water with 0.1% formic acid) and 5% buffer B (HPLC grade acetonitrile with 0.1% formic acid) to 55% B over 30 min, next ramping to 95% B over 10 min and holding 95% B for 10 min. One full MS scan (300-2000 MW) was followed by 3 data dependent scans of the nth most intense ions with dynamic exclusion enabled. The spray voltage was set to 1.94 kV and the flow rate through the column was set to 0.25 μL/min.
Raw tandem mass spectra were searched against the human IPI protein database version 3.56 using SEQUEST search engine (Thermo Scientific). Cysteine carbamido-methylation was searched as fixed modification, while methionine/tryptophan oxidation, asparagines/glutamine deamindation, lysine/serine/threonine/cysteine acetylation, N-terminal acetylation/3-butynylation/4-pentynylation/5-hexynylation and lysine 3-butynylation/4-pentynylation/5-hexynylation were searched as variable modifications. Peptide tolerance was set as 10.0 ppm, fragment ion tolerance was set as 1.0 AMU and trypsin was set as the digestion enzyme. The resulting searching files were then analyzed and visualized by Scaffold 2 proteome software.
Each identified protein must contain at least 2 unique peptides that are exclusively assigned to this protein with a minimum protein identification probability of 99%. Each peptide spectrum must meet several selection thresholds including >95% for peptide identification probability, >1.0 for SEQUEST XCorr score, and ±6 ppm for actual minus calculated peptide mass.

p300 [3] = molecular target: T1, p300; experiment: In-gel fluorescent detection of p300-catalyzed in vitro acylation of histone H3; settings: CuAAC with az-Rho, in-gel fluorescence
Text: CuAAC reactions were allowed to proceed at room temperature for 1 hr, and proteins were subsequently separated on 15% SDS-PAGE. The gels were soaked in destaining solution (40% MeOH, 10% AcOH, 50% H2O) for 1-2 hrs to remove the non-covalently bound az-Rho dye. After washing with dd H2O, the gel was subjected to in-gel fluorescence scanning.

[4] = lysine-modified peptide, H3 + acyl-CoA + p300
[5] = lysine-modified peptide, H3 + acyl-CoA, without p300

T1 sequence (Q09472 whole entry): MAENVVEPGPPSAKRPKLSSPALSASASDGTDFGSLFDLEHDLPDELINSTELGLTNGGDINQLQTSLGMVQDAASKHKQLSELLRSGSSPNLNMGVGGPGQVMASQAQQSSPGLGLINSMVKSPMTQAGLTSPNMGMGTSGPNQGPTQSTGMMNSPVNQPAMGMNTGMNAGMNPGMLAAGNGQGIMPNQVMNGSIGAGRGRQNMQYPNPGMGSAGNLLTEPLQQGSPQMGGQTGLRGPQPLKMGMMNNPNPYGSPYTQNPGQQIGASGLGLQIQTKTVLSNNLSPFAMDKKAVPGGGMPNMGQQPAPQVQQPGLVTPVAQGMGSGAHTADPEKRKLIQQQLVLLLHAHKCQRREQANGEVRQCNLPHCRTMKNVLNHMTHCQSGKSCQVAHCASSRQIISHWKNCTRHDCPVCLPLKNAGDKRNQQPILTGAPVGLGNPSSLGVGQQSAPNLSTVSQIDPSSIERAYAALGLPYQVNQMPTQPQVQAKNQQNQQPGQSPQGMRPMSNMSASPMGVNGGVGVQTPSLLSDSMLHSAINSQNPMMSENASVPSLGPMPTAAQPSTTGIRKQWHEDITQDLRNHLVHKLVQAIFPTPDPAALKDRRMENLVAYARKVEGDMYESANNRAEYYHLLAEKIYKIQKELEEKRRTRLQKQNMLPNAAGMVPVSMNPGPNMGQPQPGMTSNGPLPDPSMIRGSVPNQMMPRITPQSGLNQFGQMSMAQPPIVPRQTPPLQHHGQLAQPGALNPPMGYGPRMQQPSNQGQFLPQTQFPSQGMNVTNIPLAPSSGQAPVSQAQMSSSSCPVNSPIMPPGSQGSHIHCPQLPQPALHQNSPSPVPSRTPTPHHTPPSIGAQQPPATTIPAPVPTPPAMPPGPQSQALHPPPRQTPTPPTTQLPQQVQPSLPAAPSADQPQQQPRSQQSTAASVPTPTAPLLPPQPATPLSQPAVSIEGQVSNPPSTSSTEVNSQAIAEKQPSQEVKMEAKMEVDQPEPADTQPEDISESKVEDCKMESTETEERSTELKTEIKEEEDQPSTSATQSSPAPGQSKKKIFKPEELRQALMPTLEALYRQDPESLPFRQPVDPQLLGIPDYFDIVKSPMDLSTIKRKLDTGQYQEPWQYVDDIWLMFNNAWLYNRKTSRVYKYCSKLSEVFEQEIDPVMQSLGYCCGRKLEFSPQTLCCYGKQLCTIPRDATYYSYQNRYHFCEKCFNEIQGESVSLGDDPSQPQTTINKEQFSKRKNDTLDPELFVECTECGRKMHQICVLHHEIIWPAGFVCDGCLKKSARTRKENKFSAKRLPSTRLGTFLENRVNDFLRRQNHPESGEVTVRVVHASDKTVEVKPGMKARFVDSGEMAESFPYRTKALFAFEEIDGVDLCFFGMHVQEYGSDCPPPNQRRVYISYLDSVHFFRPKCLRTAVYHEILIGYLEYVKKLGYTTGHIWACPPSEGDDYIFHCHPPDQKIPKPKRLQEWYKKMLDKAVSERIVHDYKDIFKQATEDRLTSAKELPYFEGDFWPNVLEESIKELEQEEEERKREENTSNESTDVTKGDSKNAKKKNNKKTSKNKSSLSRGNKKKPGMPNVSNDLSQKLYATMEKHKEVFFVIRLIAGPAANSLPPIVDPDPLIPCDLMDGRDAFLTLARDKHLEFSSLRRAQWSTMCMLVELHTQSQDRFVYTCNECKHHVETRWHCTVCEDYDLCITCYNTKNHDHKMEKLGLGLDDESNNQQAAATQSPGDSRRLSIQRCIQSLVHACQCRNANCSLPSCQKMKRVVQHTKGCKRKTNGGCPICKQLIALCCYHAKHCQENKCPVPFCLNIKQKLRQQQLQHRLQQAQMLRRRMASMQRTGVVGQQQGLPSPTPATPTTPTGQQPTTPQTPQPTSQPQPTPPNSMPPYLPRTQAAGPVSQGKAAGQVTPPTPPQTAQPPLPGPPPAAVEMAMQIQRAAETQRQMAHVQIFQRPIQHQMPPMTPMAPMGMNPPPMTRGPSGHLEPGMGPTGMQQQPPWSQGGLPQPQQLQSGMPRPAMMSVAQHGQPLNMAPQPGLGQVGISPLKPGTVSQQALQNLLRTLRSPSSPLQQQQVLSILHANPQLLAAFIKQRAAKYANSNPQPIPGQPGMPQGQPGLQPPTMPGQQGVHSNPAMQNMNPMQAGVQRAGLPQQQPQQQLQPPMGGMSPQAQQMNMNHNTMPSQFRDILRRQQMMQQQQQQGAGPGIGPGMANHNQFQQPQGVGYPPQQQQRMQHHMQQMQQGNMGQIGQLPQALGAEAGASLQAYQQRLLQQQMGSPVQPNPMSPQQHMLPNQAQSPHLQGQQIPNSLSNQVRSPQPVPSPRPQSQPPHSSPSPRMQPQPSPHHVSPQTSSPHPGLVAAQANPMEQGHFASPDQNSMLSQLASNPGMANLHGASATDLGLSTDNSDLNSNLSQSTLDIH

5-hexynyl-CoA [Analog 3]
utilization as acyl-CoA donor for p300-catalyzed acylation of histone H3 peptide (p300 [1]): less efficient acyl-donor substrate | Spectral Counts of Peptide EIAQDFK (73-79) (SEQ ID NO: 7) (p300 [2]; H3 + acyl-CoA + p300): 89 | Spectral Counts of Peptide KLPFQR (64-69) (SEQ ID NO: 6) (p300 [2]; H3 + acyl-CoA + p300): 8 | Spectral Counts of Peptide KQLATK (18-23) (SEQ ID NO: 1) (p300 [2]; H3 + acyl-CoA + p300): 10 | Spectral Counts of Peptide KSAPATGGVK (27-36) (SEQ ID NO: 2) (p300 [2]; H3 + acyl-CoA + p300): 38 | Spectral Counts of Peptide SAPATGGVK (28-36) SEQ ID NO: 3 (p300 [2]; H3 + acyl-CoA + p300): 17 | Spectral Counts of Peptide STELLIR (57-63) (SEQ ID NO: 5) (p300 [2]; H3 + acyl-CoA + p300): 16 | Spectral Counts of Peptide VTIMPK (117-122) (SEQ ID NO: 9) (p300 [2]; H3 + acyl-CoA + p300): 8 | Spectral Counts of Peptide YRPGTVALR (41-49) (SEQ ID NO: 4) (p300 [2]; H3 + acyl-CoA + p300): 57 | Spectral Counts of Peptide EIAQDFK (73-79) (SEQ ID NO: 7) (p300 [2]; H3 + acyl-CoA, without p300): 74 | Spectral Counts of Peptide KQLATK (18-23) (SEQ ID NO: 1) (p300 [2]; H3 + acyl-CoA, without p300): 4 | Spectral Counts of Peptide KSAPATGGVK (27-36) (SEQ ID NO: 2) (p300 [2]; H3 + acyl-CoA, without p300): 36 | Spectral Counts of Peptide RVTIMPK (116-122) (SEQ ID NO: 8) (p300 [2]; H3 + acyl-CoA, without p300): 1 | Spectral Counts of Peptide SAPATGGVK (28-36) SEQ ID NO: 3 (p300 [2]; H3 + acyl-CoA, without p300): 12 | Spectral Counts of Peptide STELLIR (57-63) (SEQ ID NO: 5) (p300 [2]; H3 + acyl-CoA, without p300): 7 | Spectral Counts of Peptide VTIMPK (117-122) (SEQ ID NO: 9) (p300 [2]; H3 + acyl-CoA, without p300): 3 | Spectral Counts of Peptide YRPGTVALR (41-49) (SEQ ID NO: 4) (p300 [2]; H3 + acyl-CoA, without p300): 47 | Spectral Counts of Peptide KQLATK (18-23, K18) (SEQ ID NO: 13) (p300 [2]; [4]): 19 | Spectral Counts of Peptide KQLATKAAR (18-26, K18, K23) (SEQ ID NO: 15) (p300 [2]; [4]): 18 | Spectral Counts of Peptide KSAPATGGVK (27-36, K27) (SEQ ID NO: 17) (p300 [2]; [4]): 12 | Spectral Counts of Peptide KSTGGKAPR (9-17, K9, K14) (SEQ ID NO: 11) (p300 [2]; [4]): 2 | Spectral Counts of Peptide KSTGGKAPR (9-17, K14) (SEQ ID NO: 10) (p300 [2]; [4]): 11 | Spectral Counts of Peptide QLATKAAR (19-26, K23) (SEQ ID NO: 16) (p300 [2]; [4]): 1 | Spectral Counts of Peptide KQLATK (18-23, K18) (SEQ ID NO: 13) (p300 [2]; [5]): 2 | Spectral Counts of Peptide KSAPATGGVK (27-36, K27) (SEQ ID NO: 17) (p300 [2]; [5]): 2 | Spectral Counts of Peptide KSTGGKAPR (9-17, K14) (SEQ ID NO: 10) (p300 [2]; [5]): 2 | visualization of p300-acylation of histone H3 (p300 [3]): serve as sensitive reagents for visualizing p300-acylation of histone H3
